Measured values published in patent US5821243A, “Compounds compositions and methods for treating influenza” (priority 1997, dated 1998).
Counter-ions that a name gives are not always drawn. Like-named read-outs stand apart in the source and are kept apart here.

Legend:
influenza A/WSN virus = assay: Plaque reduction in MDCK cells, influenza A/WSN
Protocol: (§1) Compounds were evaluated for antiviral activity against influenza A/WSN, A/Victoria and B/Lee viruses by plaque reduction in Madin Darby canine kidney (MDCK) cells. Duplicate monolayers of MDCK cells in 6 well plates were washed free of protein-containing media, infected with 50-100 plaque-forming units of virus (0.4 ml. volume), and incubated at 37° C. for 60 minutes. After aspiration of the virus inoculum, a 0.6% agarose overlay (3 ml.) containing Eagle minimal essential media, trypsin (8 μg/ml.), and the appropriate drug dilution (final concentration of 1% DMSO) was added to the cell monolayer. Plates were incubated at 370° C. in a humidified atmosphere of 5% CO2 in air. After 48 hours, monolayers were fixed with glutaraldehyde, stained with 0.1% crystal violet and the plaques were counted. The percentage of plaque inhibition relative to the infected control (no drug) plates were calculated for each drug concentration and the 50% inhibitory concentration (IC50) was determined.

influenza = assay: Potency against influenza (test not specified)
[1] = system: influenza A/Victoria virus; assay: Plaque reduction in MDCK cells, influenza A/Victoria
Protocol: as §1

MDCK cells = assay: Cell growth assay (MTT) in MDCK cells; type: cell-based, canine; conditions: Canis lupus familiaris, 2-3 days, read-out: IC50, concentration required to achieve a 50% reduction of optical density (cell growth)
Protocol: Effects of the pyridazine derivatives of the invention on cell growth were determined in MDCK cells in 96 well plates by a tetrazolium-based calorimetric method (R. Pauwels et al., J. Virol. Methods, 20, 309-321 (1988)). This assay detects the in situ reduction of 3-(4,5-dimethylthiazol-2-yl)-2,5-diphenyltetrazolium bromide (MTT) by viable cells. Approximately 1×10^4 cells were seeded per well and incubated with drug-containing growth media for 2-3 days (3-4 cell doublings). The drug concentration resulting in a reduction of optical density by 50% was determined.

[2] = target: influenza virus cleavage of cap 1 RNA (Influenza A virus, UniProt P03427+P15659); assay: Assay for cleavage of cap 1 AIMV RNA4 by influenza virus; type: biochemical; conditions: read-out: IC50, 50% inhibition of influenza virus cleavage of cap 1 RNA
[3] = target: influenza A/WSN virus transcriptase (Influenza A virus, UniProt P03427+P03430+P15659); assay: biochemical; conditions: 45 minutes at 31° C, 1% DMSO; read-out: IC50, concentration required to achieve 50% inhibition of influenza A/WSN virus transcriptase activity
influenza B/Lee virus = assay: Plaque reduction in MDCK cells, influenza B/Lee; conditions: read-out: IC50, […], B/Lee, 48 hours
Protocol: as §1

[4] = MDCK, 48 h, read-out: IC50, […], A/WSN, MDCK cells, 48 hours
[5] = MDCK, 48 h, read-out: IC50, […], A/Victoria, MDCK cells, 48 hours
[6] = read-out: IC50, […], A/WSN, MDCK cells, 48 hours

Structure (SMILES): CC1=NN(c2ccc3[nH]nnc3c2)C(=O)C(=O)C1=O [Example 9, 5-benzotriazolyl-2,3,4,5-tetrahydro-6-methyl-pyridazine-3,4,5-trione]
- IC50 (influenza A/WSN virus; [4]): 20 µM

Structure (SMILES): CC1=NN(c2ccc3c(c2)S(=O)(=O)NC3=O)C(=O)C(=O)C1=O [6-(6-methyl-3,4,5-trioxo-2H,3H,4H,5H-pyridazinyl)-1,1-dioxo-1,2-dihydro-1λ^6-benz<d>isothiazol-3-one]
- potency against influenza (influenza): significant potency

Structure (SMILES): CC1=NN(c2ccc(C(=O)O)cc2C)C(=O)C(=O)C1=O [Example 1, 3-methyl-4-(6-methyl-3,4,5-trioxo-2H,3H,4H,5H-pyridazinyl)benzoic acid]
- IC50 (influenza A/WSN virus; [4]): 50 µM
- IC50 [1, 5]: 90 µM
- IC50 (MDCK cells): > 200 µM
- IC50 [2]: 200 nM
- IC50 [3]: 100 nM

Structure (SMILES): CNS(=O)(=O)c1ccc(Cl)c(N2N=C(C)C(=O)C(=O)C2=O)c1 [N-methyl-4-chloro-3-(6-methyl-3,4,5-trioxo-2H,3H,4H,5H-pyridazinyl)benzenesulfonamide]
- potency against influenza (influenza): significant potency

Structure (SMILES): CC1=NN(c2ccc(S(N)(=O)=O)cc2)C(=O)C(=O)C1=O [Example 5, Sodium Salt of 4-(6-methyl-3,4,5-trioxo-2H,3H,4H,5H-pyridazinyl)benzoic sulfonamide]
- IC50 (influenza B/Lee virus): 30 µM
- IC50 (influenza A/WSN virus; [6]): 8 µM
- IC50 ([1]; read-out: IC50, […], A/Victoria, MDCK cells, 48 hours): 11 µM

Structure (SMILES): CC1=NN(c2ccc(-c3nnn[nH]3)cc2)C(=O)C(=O)C1=O [Example 6, 2-(4-tetrazolylphenyl) 2,3,4,5-tetrahydro-6-methyl-pyridazine-3,4,5-trione]
- IC50 (influenza A/WSN virus; [4]): 1 µM
- IC50 [1, 5]: 2 µM
- IC50 [3]: 200 nM

Structure (SMILES): CC1=NN(c2ccc(-c3nn[nH]n3)cc2)C(=O)C(=O)C1=O [Example 7, Sodium Salt of 2-(4-tetrazolylphenyl) 2,3,4,5-tetrahydro-6-methyl-pyridazine-3,4,5-trione]
- IC50 (influenza A/WSN virus; [4]): 2 µM

Structure (SMILES): CC1=NN(c2ccc(C(=O)O)cc2C)C(=O)C(=O)C1=O [Example 2, Sodium Salt of 3-methyl-4-(6-methyl-3,4,5,-trioxo-2H,3H,4H,5H-pyridazinyl)benzoic acid]
- IC50 (influenza B/Lee virus): > 200 µM
- IC50 (influenza A/WSN virus; [6]): 100 µM

Structure (SMILES): CC1=NN(c2ccc(C)c(S(N)(=O)=O)c2)C(=O)C(=O)C1=O [2-methyl-5-(6-methyl-3,4,5-trioxo-2H,3H,4H,5H-pyridazinyl)benzenesulfonamide]
- potency against influenza (influenza): significant potency

Structure (SMILES): CNS(=O)(=O)c1ccc(N2N=C(C)C(=O)C(=O)C2=O)cc1 [N-methyl-4-(6-methyl-3,4,5-trioxo-2H,3H,4H,5H-pyridazinyl)benzenesulfonamide]
- potency against influenza (influenza): significant potency

Structure (SMILES): CC(=O)NS(=O)(=O)c1ccc(N2N=C(C)C(=O)C(=O)C2=O)cc1 [N-acetyl-4-(6-methyl-3,4,S-trioxo-2H,3H,4H,5H-pyridazinyl)benzenesulfonamide]
- potency against influenza (influenza): significant potency

Structure (SMILES): CC1=NN(c2ccc(S(N)(=O)=O)cc2)C(=O)C(=O)C1=O [Example 4, 4-(6-methyl-3,4,5-trioxo-2H,3H,4H,5H-pyridazinyl)benzene sulfonamide]
- IC50 (influenza A/WSN virus; [4]): 8 µM
- IC50 [1, 5]: 8 µM
- IC50 (MDCK cells): > 100 µM
- IC50 [2]: 2000 nM
- IC50 [3]: 1000 nM

Structure (SMILES): CC1=NN(c2ccc3[nH]ncc3c2)C(=O)C(=O)C1=O [Example 8, 5-indazolyl-2,3,4,5-tetrahydro-6-methyl-pyridazine-3,4,5-trione]
- IC50 (influenza A/WSN virus; [4]): 50 µM

Structure (SMILES): CC1=NN(c2ccc(S(=O)(=O)Nc3ccccc3)cc2)C(=O)C(=O)C1=O [N-phenyl-4-(6-methyl-3,4,5-trioxo-2H,3H,4H,5H-pyridazinyl)benzenesulfonamide]
- potency against influenza (influenza): significant potency

Structure (SMILES): CC1=NN(c2ccc(C(=O)O)c(Cl)c2)C(=O)C(=O)C1=O [Example 3, 2-chloro-4-(6-methyl-3,4,5-trioxo-2H,3H,4H,5H-pyridazinyl)benzoic acid]
- IC50 (influenza A/WSN virus; [4]): 16 µM
- IC50 [1, 5]: 50 µM

Structure (SMILES): CC1=NN(c2ccc(C(N)=O)cc2)C(=O)C(=O)C1=O [4-(6-methyl-3,4,5-trioxo-2H,3H,4H,5H-pyridazinyl)benzenecarboxamide]
- potency against influenza (influenza): significant potency

Structure (SMILES): CC1=NN(c2ccc(S(=O)(=O)Nc3cccnc3)cc2)C(=O)C(=O)C1=O [N-(3-pyridyl)-4-(6-methyl-3,4,5-trioxo-2H,3H,4H,5H-pyridazinyl)benzenesulfonamide]
- potency against influenza (influenza): significant potency
